Counter-ions that a name gives are not always drawn. Like-named read-outs stand apart in the source and are kept apart here.
How the values were obtained:
HLC = system: HLC; parameters: method as in Takayama et al. (2013), Tasnim et al. (2016); conditions: read-out: Sensitivity, HLC Acute, cited from earlier work
HepG2 = conditions: cited from earlier work
HepaRG cells = experiment: cells; type: cell-based; conditions: Homo sapiens; for EC50: read-out: EC50 (viability)
hiPS-Hep cells = experiment: Viability (cellular ATP, CellTiter-Glo) of hiPS-Hep cells after single or repeated exposure; type: cell-based; conditions: Homo sapiens; for EC50: read-out: EC50 (viability); for IC50: read-out: 14-day IC50
[1] = cited from earlier work; for Cmax: human
HepaRG = conditions: cited from earlier work
Rat Hepatocytes = system: Rat Hepatocytes; parameters: method as in Schutte et al. (2011); conditions: published model, acute; ref Schutte et al. (2011); read-out: Sensitivity, Rat Hepatocytes Acute; cited from earlier work
PHH spheroids = experiment: Viability (cellular ATP, CellTiter-Glo) of 3D PHH spheroids after single or repeated exposure; type: cell-based, human; conditions: for EC50: read-out: EC50 (viability)
[2] = 4 g APAP daily for 14 days; ref Watkins et al., 2006; cited from earlier work
C3A = system: C3A; parameters: method as in Fey and Wrzesinski (2012); conditions: published spheroid model, acute; ref Fey and Wrzesinski (2012); read-out: Sensitivity, C3A Acute; cited from earlier work
BSEP = system: BSEP; parameters: method as in Funk et al., 2001; conditions: ref Funk et al., 2001; read-out: IC50 of BSEP inhibition; cited from earlier work
[3] = published spheroid model, acute, ref Takayama et al. (2013), Tasnim et al. (2016)
[4] = published spheroid model, acute, ref Mueller et al. (2014), Ramaiahgari et al. (2014), Takayama et al. (2013), read-out: Sensitivity, HepG2 Acute
[5] = published spheroid model, repeated dose 6 days, ref Ramaiahgari et al. (2014), read-out: Sensitivity, HepG2 Repeated Dose (6 Days)
[6] = 336 h, HepaRG cells, 14 days repeated exposure, read-out: 14-day IC50
[7] = 336 h, hiPS-Hep cells, 14 days repeated exposure
[8] = published spheroid model, acute, ref Gunness et al. (2013), Mueller et al. (2014), read-out: Sensitivity, HepaRG Acute

Compound | IC50 (HLC; [3]) | IC50 (HepG2; [4]) | IC50 (HepG2; [5]) | IC50 (HepaRG cells; [6]) | EC50 (HepaRG cells; HepaRG, 48 h) | EC50 (HepaRG cells; HepaRG, 168 h) | EC50 (HepaRG cells; HepaRG, 336 h) | EC50 (hiPS-Hep cells; 48 h) | EC50 (hiPS-Hep cells; 168 h) | EC50 (hiPS-Hep cells; 336 h) | IC50 (hiPS-Hep cells; [7]) | IC50 (HepaRG; [8]) | EC50 (PHH spheroids; Homo sapiens, 48 h) | EC50 (PHH spheroids; Homo sapiens, 168 h) | EC50 (PHH spheroids; Homo sapiens, 336 h) | other results
CC(=O)Nc1ccc(O)cc1 [APAP, acetaminophen] | 30000 µM | 24000 µM | 9400 µM | 1310 µM | 5920 µM | 1590 µM | 1310 µM | > 10000 µM | > 10000 µM | 9440 µM | 9440 µM | 3000 µM | > 10000 µM | 2700 µM | 644 µM | IC50 (HepaRG cells; read-out: 48-hour IC50, HepaRG cells, acute, 48 hours): 5920 µM; peak APAP serum level average ([1]; healthy volunteers, 4 g APAP daily for 14 days, ref Watkins et al., 2006): 99.2 µM; APAP plasma concentration for which immediate treatment is stipulated ([1]; patients after acute overdose, depending on additional risk factors, ref Vale and Proudfoot, 1995): 0.7 to 1.3 mM; Cmax ([1]; read-out: Cmax or exposure value (toxic), toxic exposure, ref Vale and Proudfoot, 1995): 700000 nM; IC50 (Rat Hepatocytes): 40000 µM; IC50 (PHH spheroids; Homo sapiens, 336 h, PHH spheroids, 14 days repeated exposure, read-out: 14-day IC50): 644 µM; healthy volunteers with serum alanine aminotransferase elevations above three times the upper limit [2]: 31%–44%; IC50 (C3A): 40000 µM
CN(C)CCCN1c2ccccc2Sc2ccc(Cl)cc21 [Chlorpromazine, chlorpromazine] | – | 43 µM | – | 34.1 µM | 67 µM | 32.4 µM | 34.1 µM | 38.6 µM | 23.7 µM | 24.4 µM | 24.6 µM | 98 µM | 16.6 µM | 8.8 µM | 4.6 µM | Cmax ([1]; read-out: human toxic Cmax, toxic exposure, ref Regenthal et al., 1999): 1600 nM; IC50 (HepaRG; published spheroid model, repeated dose 72 h, ref Mueller et al. (2014), read-out: Sensitivity, HepaRG Repeated Dose (72 h)): 43 µM
Cc1c(C)c2c(c(C)c1O)CCC(C)(COc1ccc(CC3SC(=O)NC3=O)cc1)O2 (stereo not drawn) [Troglitazone, troglitazone] | 50 µM | 80 to 150 µM | 100 µM | – | > 100 µM | 36.5 µM | 34.6 µM | 46 µM | 33.9 µM | 18.7 µM | – | 400 µM | 37.4 µM | 4.2 µM | 1.5 µM | IC50 (HepaRG cells; HepaRG, 336 h, read-out: 14-day IC50): 34.6 µM; IC50 (hiPS-Hep cells; 336 h): 18.7 µM; Cmax ([1]; read-out: therapeutic Cmax, ref Loi et al., 1999): 2820 nM; IC50 (PHH spheroids; Homo sapiens, read-out: Sensitivity, PHH Acute): 37.4 µM
CCOC(=O)CN[C@@H](C(=O)N1CC[C@H]1C(=O)NCc1ccc(/C(N)=N\O)cc1)C1CCCCC1 [Ximelagatran, ximelagatran] | – | – | – | – | > 400 µM | > 400 µM | > 400 µM | > 400 µM | > 400 µM | > 400 µM | – | – | > 400 µM | 379 µM | 165 µM | –
Cc1c(C)c2c(c(C)c1OS(=O)(=O)O)CCC(C)(COc1ccc(CC3SC(=O)NC3=O)cc1)O2 (stereo not drawn) [troglitazone sulfate] | – | – | – | – | – | – | – | – | – | – | – | – | – | – | – | IC50 (BSEP): 0.4 µM
aflatoxin B1 | – | – | – | – | – | – | – | – | – | – | – | – | – | – | – | IC50 (HLC): 7 µM; IC50 (HepG2; read-out: Sensitivity, HepG2 Acute): > 200 µM; exposure levels detected in exposed individuals ([1]; in vivo): 28.5 nM; Cmax ([1]; read-out: Cmax or exposure value (toxic), in vivo): 30 nM; IC50 (HepaRG; read-out: Sensitivity, HepaRG Acute): 1.6 µM; IC50 (PHH spheroids; read-out: Sensitivity, PHH Acute): 0.4 µM; IC50 (PHH spheroids; read-out: Sensitivity, PHH Repeated Dose (14 Days)): 0.03 µM

Reference: PMC5363699, “Transcriptional, Functional, and Mechanistic Comparisons of Stem Cell–Derived Hepatocytes, HepaRG Cells, and Three-Dimensional Human Hepatocyte Spheroids as Predictive In Vitro Systems for Drug-Induced Liver Injury” (Drug Metabolism and Disposition, 2017)
